Measurements as given in patent US4044137A, “2-(Phenylthiopropyl)-5-aryl-1,2,3,4-tetrahydro-γ-carbolines” (Pfizer Inc., priority 1976, dated 1977).
Structures can show the parent of a compound that is named as a salt.

System: amphetamine-induced symptoms
Assay: antagonism of amphetamine-induced symptoms (cage movement) in rats
Type: in vivo
Conditions: test compound i.p., 1 hr., d-amphetamine sulfate 5 mg./kg. i.p. given 1 hr. after compound, rated one hour after amphetamine
Excerpt: The tranquilizing agents of the present invention are characterized by relief of such schizophrenic manifestations in humans as hallucinations, hostility, suspiciousness, emotional or social withdrawal, anxiety, agitation and tension. Standard procedures of detecting and comparing tranquilizing activity of compounds in this series and for which there is an excellent correlation with human efficacy is the antagonism of amphetamine-induced symptoms in rats test, as taught by A. Weissman, et al., J. Pharmacol. Exp. Ther., 151, 339 (1966) and by Quinton, et al., Nature, 200, 178 (1963).
The effects of the compounds of the present invention on prominent amphetamine-induced symptoms were studied in rats by a rating scale modeled after the one reported by Quinton and Halliwell and by Weissman. Groups of five rats were placed in a covered plastic cage measuring approximately 26 × 42 × 16 cm. After a brief period of acclimation in the cage, the rats in each group were treated intraperitoneally (i.p.) with the test compound. […] On the basis of dose-response data after amphetamine it was possible to determine the effective dose of the compound necessary to antagonize or block the characteristic amphetamine behavior of cage movement for fifty percent of the rats tested (ED50). […]

Row | Compound | ED50 (effective dose to antagonize or block the characteristic amphetamine behavior of cage movement for fifty percent of the rats tested)
1 | Fc1ccc(SCCCN2CCc3c(c4cc(F)ccc4n3-c3ccc(F)cc3)C2)cc1 [F F F 0, 8-Fluoro-5-(p-fluorophenyl)-2-[3-(p-fluorophenylthio)propyl]-1,2,3,4-tetrahydro-γ-carboline hydrochloride] | 32 mg/kg
2 | [O-][S+](CCCN1CCc2c(c3cc(F)ccc3n2-c2ccc(F)cc2)C1)c1ccc(F)cc1 (centres unmarked) [F F F 1, 8-fluoro-5-(p-fluorophenyl)-2-[3-(p-fluorophenylsulfinyl)propyl]-1,2,3,4-tetrahydro-γ-carboline hydrochloride] | 10 mg/kg
